Values of other authors, collected in patent US12102667B2, “Polypeptides and antibiotics against gram-negative bacterium comprising the same” (priority 2021, dated 2024).
Where two headings read alike, the source gives them in different places.

What was measured:
E. coli = details: cited from earlier work
K. pneumoniae = K. pneumoniae CCARM 10143; cited from earlier work

Row | Compound | MIC of antibiotics (E. coli; E. coli CCARM 1A746) [µg/mL] | MIC of antibiotics (E. coli; E. coli CCARM 1B684) [µg/mL] | MIC of antibiotics (K. pneumoniae) [µg/mL]
1 | CC(=O)OCC1=C(C(=O)O)N2C(=O)[C@@H](NC(=O)Cc3cccs3)[C@H]2SC1 [Cephalothin] | ≥128 | 64 | ≥128
2 | O=C(O)c1cn(C2CC2)c2cc(N3CCNCC3)c(F)cc2c1=O [Ciprofloxacin] | 128 | 64 | ≤0.25
3 | Gentamicin | ≥128 | 128 | ≥128
4 | CO/N=C(\C(=O)N[C@@H]1C(=O)N2C(C(=O)O)=C(COC(C)=O)CS[C@H]12)c1csc(N)n1 [Cefotaxime] | 128 | 0.25 | 16
5 | CC1(C)S[C@@H]2[C@H](NC(=O)[C@H](N)c3ccccc3)C(=O)N2[C@H]1C(=O)O [Ampicillin] | ≥128 | ≥128 | ≥128
